Where two headings read alike, the source gives them in different places.
Experiments:
Assay in all cases: cell-based
human AR [1] = target: T1, human AR (Homo sapiens, UniProt P10275); assay type: cell-based; conditions: for AR Antagonist CV-1 Cells Efficacy: antagonist mode, DHT at its EC50, % of maximal inhibition, na = not active; for IC50: read-out: AR Antagonist CV-1 Cells Potency; for EC50: read-out: AR Agonist CV-1 Cells Potency; for AR activity profile (in words): summary of Tables 1 and 2
T1 construct: expressed in transfected cells; host or cells: CV-1 cells (African green monkey kidney fibroblasts)
T1 sequence (P10275 1-920): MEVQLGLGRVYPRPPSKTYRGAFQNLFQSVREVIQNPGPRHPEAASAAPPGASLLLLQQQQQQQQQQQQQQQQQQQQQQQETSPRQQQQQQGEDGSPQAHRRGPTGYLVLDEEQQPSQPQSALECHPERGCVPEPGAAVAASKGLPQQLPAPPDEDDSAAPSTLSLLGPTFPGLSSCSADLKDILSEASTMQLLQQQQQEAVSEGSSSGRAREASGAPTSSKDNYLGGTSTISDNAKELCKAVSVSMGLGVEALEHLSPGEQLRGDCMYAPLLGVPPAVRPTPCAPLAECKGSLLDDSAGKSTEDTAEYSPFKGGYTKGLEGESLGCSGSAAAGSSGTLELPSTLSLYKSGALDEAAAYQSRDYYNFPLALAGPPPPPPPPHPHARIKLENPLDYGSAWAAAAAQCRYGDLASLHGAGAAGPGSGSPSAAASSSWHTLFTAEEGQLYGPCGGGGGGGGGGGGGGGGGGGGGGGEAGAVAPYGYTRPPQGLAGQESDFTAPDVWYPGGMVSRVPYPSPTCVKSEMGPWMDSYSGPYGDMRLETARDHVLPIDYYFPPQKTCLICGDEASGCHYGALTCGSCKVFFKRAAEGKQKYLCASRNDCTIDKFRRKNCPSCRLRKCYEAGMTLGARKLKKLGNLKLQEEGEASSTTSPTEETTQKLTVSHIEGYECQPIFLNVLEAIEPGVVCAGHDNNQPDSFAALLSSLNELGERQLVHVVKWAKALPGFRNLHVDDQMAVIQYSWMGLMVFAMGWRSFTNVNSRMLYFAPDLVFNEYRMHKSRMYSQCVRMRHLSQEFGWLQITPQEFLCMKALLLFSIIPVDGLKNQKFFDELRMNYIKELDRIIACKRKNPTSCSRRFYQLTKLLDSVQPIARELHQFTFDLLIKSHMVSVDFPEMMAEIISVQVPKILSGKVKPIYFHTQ
Description: The co-transfection assay provides a method for identifying functional agonists and partial agonists which mimic, or antagonists which inhibit, the effect of native hormones, and quantifying their activity for responsive IR proteins. In this regard, the co-transfection assay mimics an in vivo system in the laboratory. Importantly, activity in the co-transfection assay correlates very well with known in vivo activity, such that the co-transfection assay functions as a qualitative and quantitative predictor of a tested compounds in vivo pharmacology. See, e.g., T. Berger et al. 41 J. Steroid Biochem. Molec.
CV-1 cells (African green monkey kidney fibroblasts) were cultured in the presence of Dulbecco's Modified Eagle Medium (DMEM) supplemented with 10% charcoal resin-stripped fetal bovine serum then transferred to 96-well microtiter plates one day prior to transfection.
The reporter plasmid, MTV-LUC, contains the cDNA for firefly luciferase (LUC) under control of the mouse mammary tumor virus (MTV) long terminal repeat, a conditional promoter containing an androgen response element. See e.g., Berger et al. supra. In addition, pRS-β-Gal, coding for constitutive expression of E. coli β-galactosidase (β-Gal), was included as an internal control for evaluation of transfection efficiency and compound toxicity.
Three to four replicates were used for each sample.
After 40 hours, the cells were washed with PBS, lysed with a Triton X-100-based buffer and assayed for LUC and β-Gal activities using a luminometer or spectrophotometer, respectively. For each replicate, the normalized response (NR) was calculated as:
where β-Gal rate=β-Gal•1×10^−5/β-Gal incubation time.

human AR [2] = target: T1, human AR; conditions: read-out: AR Binding Ki
PR = target: T2, PR (Homo sapiens, UniProt P06401)
T2 sequence (P06401 1-933): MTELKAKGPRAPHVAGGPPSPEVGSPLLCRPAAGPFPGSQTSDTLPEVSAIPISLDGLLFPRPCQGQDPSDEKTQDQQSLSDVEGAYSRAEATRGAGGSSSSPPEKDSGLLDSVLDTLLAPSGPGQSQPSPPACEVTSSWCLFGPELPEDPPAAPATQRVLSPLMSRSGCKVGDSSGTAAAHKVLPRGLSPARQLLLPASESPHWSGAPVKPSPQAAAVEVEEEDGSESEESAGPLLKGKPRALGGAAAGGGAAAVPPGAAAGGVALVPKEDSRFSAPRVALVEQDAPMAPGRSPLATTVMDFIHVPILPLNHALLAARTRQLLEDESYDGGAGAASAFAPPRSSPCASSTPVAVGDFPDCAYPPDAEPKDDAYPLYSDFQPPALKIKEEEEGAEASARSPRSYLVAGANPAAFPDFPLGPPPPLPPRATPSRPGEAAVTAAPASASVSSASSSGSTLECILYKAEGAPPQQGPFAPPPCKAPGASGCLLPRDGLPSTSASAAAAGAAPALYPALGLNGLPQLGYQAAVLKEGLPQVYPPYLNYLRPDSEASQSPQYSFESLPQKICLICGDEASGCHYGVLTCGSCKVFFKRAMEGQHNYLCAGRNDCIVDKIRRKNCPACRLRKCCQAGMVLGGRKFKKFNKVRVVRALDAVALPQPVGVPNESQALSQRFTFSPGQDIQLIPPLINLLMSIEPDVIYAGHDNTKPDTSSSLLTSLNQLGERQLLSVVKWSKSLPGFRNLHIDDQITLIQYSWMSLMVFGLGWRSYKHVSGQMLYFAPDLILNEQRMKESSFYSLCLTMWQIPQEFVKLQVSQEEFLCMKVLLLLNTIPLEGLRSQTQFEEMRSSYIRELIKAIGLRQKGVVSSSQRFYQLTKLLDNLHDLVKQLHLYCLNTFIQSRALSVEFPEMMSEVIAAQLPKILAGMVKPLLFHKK

## CC12CCCN1c1cc3[nH]c(=O)c(F)c(C(F)(F)F)c3cc1CC2 (racemic) [Compound 102, (R/S)-3-Fluoro-6,7,7a,11-tetrahydro-7a-methyl-4-trifluoromethyl-2-pyridono[5,6-g]pyrrolidino[1,2-a]quinoline]
Human AR [1]
  AR Antagonist CV-1 Cells Efficacy: 85 ± 1%
  IC50: 193 ± 19 nM
Human AR [2]
  Ki: 11 nM
PR
  IC50: 398 nM

## Cn1c(=O)c(F)c(C(F)(F)F)c2cc3c(cc21)N1CCCC1(C)CC3 (racemic) [Compound 104, (R/S)-3-Fluoro-6,7,7a,11-tetrahydro-1,7a-dimethyl-4-trifluoromethyl-2-pyridono[5,6-g]pyrrolidino[1,2-a]quinoline]
Human AR [1]
  AR Antagonist CV-1 Cells Efficacy: 85 ± 2%
  IC50: 40 ± 9 nM
Human AR [2]
  Ki: 93 ± 48 nM
PR
  IC50: 800 nM

## CCC1CCN(C(C)=O)c2cc3[nH]c(=O)cc(C(F)(F)F)c3cc21 (racemic) [Compound 123, (R/S)-1-Acetyl-4-ethyl-1,2,3,4-tetrahydro-6-(trifluoromethyl)-8-pyridono[5,6-g]quinoline]
Human AR [1]
  AR Agonist CV-1 Cells Efficacy: 91 ± 17%
  EC50: 31 ± 2 nM
Human AR [2]
  Ki: 87 nM

## CCC1CCN([N+](=O)[O-])c2cc3[nH]c(=O)cc(C(F)(F)F)c3cc21 (racemic) [Compound 127, (R/S)-4-Ethyl-1,2,3,4-tetrahydro-1-nitro-6-(trifluoromethyl)-8-pyridono[5,6-g]quinoline]
Human AR [1]
  AR Agonist CV-1 Cells Efficacy: 56 ± 12%
  EC50: 85 ± 36 nM
Human AR [2]
  Ki: 136 nM

## CC1(C)CCc2cc3c(C(F)F)c(F)c(=O)[nH]c3cc2N1 [Compound 106, 6-Difluoromethyl-7-fluoro-1,2,3,4-tetrahydro-2,2-dimethyl-8-pyridono[5,6-g]quinoline]
Human AR [1]
  AR Antagonist CV-1 Cells Efficacy: 78 ± 3%
  IC50: 52 ± 14 nM
Human AR [2]
  Ki: 73 ± 37 nM

## Cn1c(=O)c(F)c(C(F)(F)F)c2cc3c(cc21)NC(C)(C)CC3 [Compound 107, 7-Fluoro-1,2,3,4-tetrahydro-2,2,9-trimethyl-6-trifluoromethyl-8-pyridono[5,6-g]quinoline]
Human AR [1]
  AR Antagonist CV-1 Cells Efficacy: 83 ± 3%
  IC50: 38 ± 10 nM
Human AR [2]
  Ki: 110 ± 42 nM

## CN1c2cc3c(cc2CCC1(C)C)c(C(F)(F)F)c(F)c(=O)n3C [Compound 109, 7-Fluoro-1,2,3,4-tetrahydro-1,2,2,9-tetramethyl-6-trifluoromethyl-8-pyridono[5,6-g]quinoline]
Human AR [1]
  AR Agonist CV-1 Cells Efficacy: 13 ± 8 %
  AR Antagonist CV-1 Cells Efficacy: 77 ± 4%
  EC50: 36 ± 45 nM
  IC50: 15 ± 2 nM
  AR activity profile (in words): highly selective AR antagonists
Human AR [2]
  Ki: 18 ± 7 nM

## CC1=CC(C)(C)Nc2cc3[nH]c(=O)c(F)c(C(F)(F)F)c3cc21 [Compound 111, 7-Fluoro-1,2-dihydro-2,2,4-trimethyl-6-trifluoromethyl-8-pyridono[5,6-g]quinoline]
Human AR [1]
  AR Agonist CV-1 Cells Efficacy: 16 ± 2%
  AR Antagonist CV-1 Cells Efficacy: 53 ± 5%
  EC50: 227 ± 59 nM
  IC50: 43 ± 8 nM
  AR activity profile (in words): mixed AR agonists/antagonists
Human AR [2]
  Ki: 12 nM

## CC1CC(C)(C)Nc2cc3[nH]c(=O)c(F)c(C(F)(F)F)c3cc21 (centres unmarked) [Compound 112, 7-Fluoro-1,2,3,4-tetrahydro-2,2,4-trimethyl-6-trifluoromethyl-8-pyridono[5,6-g]quinoline]
Human AR [1]
  AR Agonist CV-1 Cells Efficacy: 21 ± 6%
  AR Antagonist CV-1 Cells Efficacy: 42 ± 10%
  EC50: 26 ± 15 nM
  IC50: 20 ± 1 nM
  AR activity profile (in words): highly selective AR antagonists
Human AR [2]
  Ki: 61 ± 16 nM

## CC1CC(C)(C)n2oc(=O)c3c4[nH]c(=O)cc(C(F)(F)F)c4cc1c32 (centres unmarked) [Compound 113, 1,10-[1,3-dihydro-3-oxo-(2,1-isoxazolyl)]-1,2,3,4-tetrahydro-2,2,4,10-tetramethyl-6-trifluoromethyl-8-pyridono[5,6-g]quinoline]
Human AR [1]; agonist mode, na = not active (efficacy < 10 and potency > 10,000)
  EC50: 245 nM
Human AR [1]; agonist mode, percent maximal response relative to reference agonist DHT, na = not active (efficacy < 10 and potency > 10,000)
  AR Agonist CV-1 Cells Efficacy: 31%
Human AR [1]
  AR Antagonist CV-1 Cells Efficacy: 48%
  AR activity profile (in words): mixed AR agonists/antagonists
Human AR [2]
  Ki: 10 nM

## Cc1c2c(cc3c(C(F)(F)F)c(F)c(=O)[nH]c13)C(C)CC(C)(C)N2 (centres unmarked) [Compound 115, 7-Fluoro-1,2,3,4-tetrahydro-2,2,4,10-tetramethyl-6-trifluoromethyl-8-pyridono[5,6-g]quinoline]
Human AR [1]
  AR Antagonist CV-1 Cells Efficacy: 87 ± 1%
Human AR [2]
  Ki: 107 nM

## CC1(C)CCc2cc3c(C(F)(F)F)cc(=O)[nH]c3cc2N1O [Compound 118, 1,2,3,4-Tetrahydro-1-hydroxy-2,2-dimethyl-6-trifluoromethyl-8-pyridono[5,6-g]quinoline]
Human AR [1]
  AR Antagonist CV-1 Cells Efficacy: 70 ± 2 %
  IC50: 482 ± 179 nM
Human AR [2]
  Ki: 86 ± 29 nM

## Cn1c(=O)cc(C(F)(F)F)c2cc3c(cc21)N(O)C(C)(C)CC3 [Compound 119, 1,2,3,4-Tetrahydro-1-hydroxy-2,2,9-trimethyl-6-trifluoromethyl-8-pyridono[5,6-g]quinoline]
Human AR [1]
  AR Antagonist CV-1 Cells Efficacy: 40 ± 12%
  IC50: 1570 ± 1050 nM
Human AR [2]
  Ki: 74 ± 29 nM

## CCC1(CC)CCc2cc3c(C(F)(F)F)c(F)c(=O)[nH]c3cc2N1 [Compound 120, 2,2-Diethyl-7-fluoro-1,2,3,4-tetrahydro-6-trifluoromethyl-8-pyridono[5,6-g]quinoline]
Human AR [1]
  AR Agonist CV-1 Cells Efficacy: 18 ± 3%
  AR Antagonist CV-1 Cells Efficacy: 61 ± 5%
  EC50: 171 ± 95 nM
  IC50: 17 ± 2 nM
Human AR [2]
  Ki: 156 ± 24 nM

— patent publication US6534516B1, “Androgen receptor modulator compounds and methods” (Ligand Pharmaceuticals Incorporated, priority 1996, dated 2003)
